Data taken from patent US7807676B2, “Diketo-Piperazine and Piperidine derivatives as antiviral agents” (priority 2006, dated 2010).
Counter-ions that a name gives are not always drawn.

Test system: HIV-1 single-round infectious reporter virus
Test: Single-round infectious HIV-1 luciferase reporter virus infection of HeLa CD4 cells (antiviral EC50)
Format: cell-based
Settings: Human immunodeficiency virus 1, HeLa, read-out: EC50 Group from Table 3
Summary of the method: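 Compound (≤10 μM final, 10 concentrations) was added to HeLa CD4 cells together with luciferase-reporter HIV-1 pseudovirus (nef replaced by luciferase, envelope supplied in trans) at MOI ~0.01. Cells were lysed 72 h post-infection at 37 °C for luminescence; percent inhibition versus untreated infection, fitted four-parameter logistic for EC50.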

Structure (SMILES)	EC50 [nM]
COc1cnc(-c2ncc(OC)c3c(C(=O)C(=O)N4CCN(c5nnnn5-c5ccccc5)CC4)c[nH]c23)c2[nH]ccc12 [A-64]	< 500
CCN(C)C(=O)c1cc(-c2ncc(F)c3c(C(=O)C(=O)N4CCN(c5nnnn5-c5ccccc5)CC4)c[nH]c23)n[nH]1 [F-9]	< 500
O=C(C(=O)N1CCN(c2nc(-c3ccccc3)cs2)CC1)c1c[nH]c2c(-n3ccnn3)ncc(F)c12 [A-8]	< 500
COc1cnc(-c2cscn2)c2[nH]cc(C(=O)C(=O)N3CCN(c4nnnn4-c4ccccn4)CC3)c12 [B-70]	< 500
COc1cccc(-n2nnnc2N2CCN(C(=O)C(=O)c3c[nH]c4c(-n5ccnn5)ncc(F)c34)CC2)c1 [E-9]	< 500
O=C(C(=O)N1CCC(C2=NCCN2c2ccccc2)CC1)c1c[nH]c2c(-n3ccnn3)ncc(F)c12 [G-17a]	> 500
COc1cnc(-c2cncs2)c2[nH]cc(C(=O)C(=O)N3CCN(c4nnnn4-c4ccccn4)CC3)c12 [B-71]	< 500
COc1cc[n+]([O-])c2[nH]cc(C(=O)C(=O)N3CCN(c4nnnn4-c4ccccc4)CC3)c12 [B-32]	> 500
COc1cnc(-n2cnc(C)n2)c2[nH]cc(C(=O)C(=O)N3CCC(C4=NCCN4c4ccccc4)CC3)c12 [G-17b]	< 500
C[C@@H]1CN(c2snnc2-c2ccccc2)CCN1C(=O)C(=O)c1c[nH]c2c(-n3ccnn3)ncc(F)c12 [D-30]	< 500
COc1cnc(-n2ccnn2)c2[nH]cc(C(=O)C(=O)N3C(C)CN(c4nnnn4-c4ccccc4)CC3C)c12 (stereo not drawn) [A-58]	< 500
COc1cnc(-c2ccc(N3CCN(C(=O)OC(C)C)CC3)cc2)c2[nH]cc(C(=O)C(=O)N3CCN(c4nnnn4-c4ccccn4)CC3)c12 [B-83]	< 500
CCOC(=O)c1cc(-c2ncc(F)c3c(C(=O)C(=O)N4CCN(c5nnnn5-c5ccccc5)CC4)c[nH]c23)nn1C [B-43]	< 500
Cc1cc(NC(=O)c2cccnc2N2CCN(C(=O)C(=O)c3c[nH]c4c(-n5ccnn5)ncc(F)c34)CC2)no1 [D-39]	> 500
CN(C)CCCNC(=O)c1cc(-c2ncc(F)c3c(C(=O)C(=O)N4CCN(c5c[nH]nc5-c5ccccc5)CC4)c[nH]c23)n[nH]1 [B-53]	< 500
O=C(C(=O)N1CCC(c2c(-c3ccccc3)[nH]c3ccccc23)CC1)c1c[nH]c2c(-n3ccnn3)ncc(F)c12 [A-36]	> 500
O=C(C(=O)N1CCN(c2nncn2-c2ccccc2)CC1)c1c[nH]c2c(-n3ccnn3)ncc(F)c12 [A-20]	< 500
CN(C)CCNc1ccn(-c2ncc(F)c3c(C(=O)C(=O)N4CCN(c5nnnn5-c5ccccc5)CC4)c[nH]c23)n1 [B-23, 1-(7-(3-(2-(dimethylamino)ethylamino)-1H-pyrazol-1-yl)-4-fluoro-1H-pyrrolo[2,3-c]pyridin-3-yl)-2-(4-(1-phenyl-1H-tetrazol-5-yl)piperazin-1-yl)ethane-1,2-dione TFA]	< 500
COc1cnc(-c2cc(C(=O)O)[nH]n2)c2[nH]cc(C(=O)C(=O)N3CCN(c4nnnn4-c4ccccc4)CC3)c12 [B-21, 3-(4-methoxy-3-(2-oxo-2-(4-(1-phenyl-1H-tetrazol-5-yl)piperazin-1-yl)acetyl)-1H-pyrrolo[2,3-c]pyridin-7-yl)-1H-pyrazole-5-carboxylic acid]	< 500
O=C(C(=O)N1CCC(N2CCC2c2ccccc2)CC1)c1c[nH]c2c(-n3ccnn3)ncc(F)c12 (stereo not drawn) [A-24]	> 500

Structure (SMILES)	EC50 [nM]
CCc1ncn(-c2ncc(OC)c3c(C(=O)C(=O)N4CCN(c5nnnn5-c5ccccn5)CC4)c[nH]c23)n1 [A-69]	< 500
CN(C)CCn1cc(N2CCN(C(=O)C(=O)c3c[nH]c4c(-n5ccnn5)ncc(F)c34)CC2)c(-c2ccccc2)n1 [G-6b]	< 500
CCc1ncn(-c2ncc(OC)c3c(C(=O)C(=O)N4CCN(c5nnnn5-c5ccccc5)CC4)c[nH]c23)n1 [A-70]	< 500
COc1cnc(-c2ccc(F)nc2)c2[nH]cc(C(=O)C(=O)N3CCN(c4nnnn4-c4ccccn4)CC3)c12 [H-13]	< 500
N#Cc1ccc(-n2nnnc2N2CCN(C(=O)C(=O)c3c[nH]c4c(-n5ccnn5)ncc(F)c34)CC2)cc1 [E-12]	> 500
COc1cnc(-n2cnc(C)n2)c2[nH]cc(C(=O)C(=O)N3CCN(c4nnnn4-c4cccc(F)n4)CC3)c12 [E-12a]	< 500
CN(C)c1nc(N2CCN(C(=O)C(=O)c3c[nH]c4c(-n5ccnn5)ncc(F)c34)CC2)n(-c2ccccc2)n1 [G-4a]	< 500
COc1cnc(-n2cnc(C)n2)c2[nH]cc(C(=O)C(=O)N3CCN(c4[nH]nnc4-c4ccccc4)CC3)c12 [G-8b]	< 500
COc1cnc(-c2cc(C(=O)NCCOCCO)[nH]n2)c2[nH]cc(C(=O)C(=O)N3CCN(c4nnnn4-c4ccccc4)CC3)c12 [B-9, N-(2-(2-hydroxyethoxy)ethyl)-3-(4-methoxy-3-(2-oxo-2-(4-(1-phenyl-1H-tetrazol-5-yl)piperazin-1-yl)acetyl)-1H-pyrrolo[2,3-c]pyridin-7-yl)-1H-pyrazole-5-carboxamide.TFA]	< 500
CC(=O)NCCNC(=O)c1cc(-c2ncc(F)c3c(C(=O)C(=O)N4CCN(c5nnnn5-c5ccccc5)CC4)c[nH]c23)n[nH]1 [F-14]	< 500
COc1cnc(-c2ccc(C#N)nc2)c2[nH]cc(C(=O)C(=O)N3CCN(c4nnnn4-c4ccccn4)CC3)c12 [H-11]	< 500
O=C(C(=O)N1CCC(N2C(=O)CC2c2ccccc2)CC1)c1c[nH]c2c(-n3ccnn3)ncc(F)c12 (stereo not drawn) [A-21]	< 500
O=C(C(=O)N1CCN(c2nnnn2-c2ccccc2)CC1)c1c[nH]c2c(-c3cc[nH]n3)ncc(F)c12 [B-28]	< 500
COc1nc(N2CCN(C(=O)C(=O)c3c[nH]c4c(-n5cnc(C)n5)ncc(OC)c34)CC2)n(-c2ccccc2)n1 [G-29b]	< 500
COc1cnc(-c2cnc(C)s2)c2[nH]cc(C(=O)C(=O)N3CCN(c4nnnn4-c4ccccn4)CC3)c12 [B-90]	< 500
O=C(C(=O)N1CCN(c2ncccc2C(F)(F)F)CC1)c1c[nH]c2c(-n3ccnn3)ncc(F)c12 [A-51]	< 500
CCc1ncc(-c2ncc(OC)c3c(C(=O)C(=O)N4CCN(c5nnnn5-c5ccccn5)CC4)c[nH]c23)s1 [B-91]	< 500
COc1cnc(-n2cnc(C)n2)c2[nH]cc(C(=O)C(=O)N3CCN(c4cn(CCN(C)C)nc4-c4ccccc4)CC3)c12 [G-6a]	< 500
Nc1ncc(F)c2c(C(=O)C(=O)N3CCN(c4nnnn4-c4ccccc4)CC3)c[nH]c12 [B-17, 1-(7-amino-4-fluoro-1H-pyrrolo[2,3-c]pyridin-3-yl)-2-(4-(1-phenyl-1H-tetrazol-5-yl)piperazin-1-yl)ethane-1,2-dione]	< 500
O=C(C(=O)N1CCN(c2nnnn2-c2ccccn2)CC1)c1c[nH]c2c(-n3ccnn3)ncc(F)c12 [E-1, 1-(4-fluoro-7-(1H-1,2,3-triazol-1-yl)-1H-pyrrolo[2,3-c]pyridinyl-3-yl)-2-(4-(1-(pyridin-2-yl)-1H-tetrazol-5-yl)piperazin-1-yl)ethane-1,2-dione]	< 500

Structure (SMILES)	EC50 [nM]
Cn1ccc(-c2ncc(F)c3c(C(=O)C(=O)N4CCN(c5nnnn5-c5ccccc5)CC4)c[nH]c23)n1 [B-29]	< 500
COc1cnc(C(=O)NCCO)c2[nH]cc(C(=O)C(=O)N3CCN(c4nnnn4-c4ccccc4)CC3)c12 [B-64]	< 500
CCOc1ncc(-c2ncc(OC)c3c(C(=O)C(=O)N4CCN(c5nnnn5-c5ccccn5)CC4)c[nH]c23)s1 [B-89]	< 500
CN(C)c1cnc(C(=O)NCCO)c2[nH]cc(C(=O)C(=O)N3CCN(c4nnnn4-c4ccccc4)CC3)c12 [B-56]	< 500
O=C(C(=O)N1C[C@@H]2CC[C@H]1CN2c1nnnn1-c1ccccc1)c1c[nH]c2c(-n3ccnn3)ncc(F)c12 [A-72]	< 500
COc1cnc(-n2cnc(C)n2)c2[nH]cc(C(=O)C(=O)N3CCN(c4cc(N(C)C)nnc4-c4ccccc4)CC3)c12 [G-14b]	< 500
CN1CCCC1CCNC(=O)c1cc(-c2ncc(F)c3c(C(=O)C(=O)N4CCN(c5nnnn5-c5ccccc5)CC4)c[nH]c23)n[nH]1 (stereo not drawn) [F-13]	< 500
COc1cnc(C(=O)NC2CC2)c2[nH]cc(C(=O)C(=O)N3CCN(c4nnnn4-c4ccccn4)CC3)c12 [B-66]	< 500
O=C(C(=O)N1CCN(c2nnc(O)n2-c2ccccc2)CC1)c1c[nH]c2c(-n3ccnn3)ncc(F)c12 [A-22]	< 500
COc1cnc(-c2cc(CO)[nH]n2)c2[nH]cc(C(=O)C(=O)N3CCN(c4nnnn4-c4ccccn4)CC3)c12 [B-67]	< 500
COc1cnc(-n2cnc(C)n2)c2[nH]cc(C(=O)C(=O)N3CCN(c4nnnn4-c4ccccc4)[C@H](C)C3)c12 [A-46]	< 500
O=C(C(=O)N1CCN(c2nnnn2-c2ccccc2)CC1)c1c[nH]c2cccc(F)c12 [A-27]	< 500
CC(=O)N1CCN(C(=O)c2cc(-c3ncc(F)c4c(C(=O)C(=O)N5CCN(c6nnnn6-c6ccccc6)CC5)c[nH]c34)n[nH]2)CC1 [F-5]	< 500
O=C(C(=O)N1CCN(c2nn[nH]c2-c2nccs2)CC1)c1c[nH]c2c(-n3ccnn3)ncc(F)c12 [G-25a]	< 500
CN(C)CCCN(C)C(=O)c1cc(-c2ncc(F)c3c(C(=O)C(=O)N4CCN(c5nnnn5-c5ccccc5)CC4)c[nH]c23)n[nH]1 [B-38]	< 500
COc1cnc(-c2cc(C(=O)NCCO)[nH]n2)c2[nH]cc(C(=O)C(=O)N3CCN(c4nnnn4-c4ccccc4)CC3)c12 [B-8, N-(2-hydroxyethyl)-3-(4-methoxy-3-(2-oxo-2-(4-(1-phenyl-1H-tetrazol-5-yl)piperazin-1-yl)acetyl)-1H-pyrrolo[2,3-c]pyridin-7-yl)-1H-pyrazole-5-carboxamide.TFA]	< 500
Cc1cccnc1N1CCN(C(=O)C(=O)c2c[nH]c3c(-n4ccnn4)ncc(F)c23)CC1 [D-6]	< 500
CN(C)CCn1ccc(-c2ncc(F)c3c(C(=O)C(=O)N4CCN(c5nnnn5-c5ccccc5)CC4)c[nH]c23)n1 [B-30]	< 500
COc1cnc(-n2cnc(C)n2)c2[nH]cc(C(=O)C(=O)N3CCN(c4nnnn4-c4ccccc4)[C@@H](C)C3)c12 [A-60]	< 500
COc1cnc(-n2cnc(C)n2)c2[nH]cc(C(=O)C(=O)N3CCN(c4cnnn4-c4ccccn4)CC3)c12 [G-22b]	< 500
